Measured values published in patent US12522597B2, “Methods and compositions for modulating splicing” (Skyhawk Therapeutics, Inc., priority 2019, dated 2026).
Where two headings read alike, the source gives them in different places.

Tests used:
[1] = test system: Huntingtin (HTT) transcripts; assay: Quantitative splicing assay (HTT), qPCR; assay type: cell-based; details: Homo sapiens, GM04724 (CAG 70/20) Huntington's disease patient lymphoblasts, 24 h
How it was run: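 Read-out is TaqMan qPCR on cDNA, quantifying inclusion of a cryptic exon within HTT intron 49. Cells were Huntington's patient lymphoblasts GM04724 (CAG 70/20), treated for 24 h at 0.15 nM–2.5 uM compound in 0.1% DMSO.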

mHTT protein = mHTT protein assay (2B7-MW1, Mesoscale Discovery); assay type: cell-based, human; details: GM04724 (CAG 70/20) Huntington's disease patient lymphoblast cells, 48 hours, 2B7-MW1 MSD; read-out: HTT Potency - Protein EC50 mHTT (average)
How it was run: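 mHTT levels were read with the 2B7-MW1 antibody pair (N17 and polyQ epitopes) on MSD after 48 h dosing, 10 μM–0.6 nM. Cells were GM04724 HD lymphoblasts (CAG 70/20). A replica plate was read by CTG for cell viability.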

[2] = test system: MDR1-MDCK cell monolayers; assay: MDCK-MDR1 permeability assay (BBB penetration potential); assay type: in vitro ADME; details: dog, MDCK-MDR1, 120 min, 5 μM, pH 7.4
Protocol: (§1) Each determination is performed in duplicate. […] Analytical conditions are outlined below.

MDR1 = assay: as above; assay type: in vitro ADME; details: dog; for efflux ratio at 120 min, 5 μM: MDCK-MDR1, pH 7.4, MDCK-MDR1: Efflux; for Papp A→B at 120 min, 5 μM: MDCK-MDR1, pH 7.4, MDCK-MDR1: Papp A-B; for Papp B→A at 120 min, 5 μM: MDCK-MDR1, pH 7.4, MDCK-MDR1: Papp B-A
Protocol: as §1

[3] = qPCR HTTex49_50, read-out: HTT Potency - Splicing: E49-50 EC50 (average)
[4] = qPCR cryptic exon 49b inclusion, read-out: HTT Potency - Splicing: E49b EC50 (average)

Row | SMILES | EC50 [1, 3] [nM] | EC50 [1, 4] [nM] | EC50 (mHTT protein) [nM] | MDCK-MDR1: % Recov A-B [2] [%] | MDCK-MDR1: % Recov B-A [2] [%] | efflux ratio at 120 min, 5 μM (MDR1) | Papp A→B at 120 min, 5 μM (MDR1) [×10⁻⁶ cm/s] | Papp B→A at 120 min, 5 μM (MDR1) [×10⁻⁶ cm/s]
1 | Cn1ccc2cc(O)c(-c3ccc(O[C@@H]4C[C@@]5(C)CC[C@](C)(N5)[C@@H]4F)nn3)cc2c1=O (single isomer, unassigned) [130-ENT2] | 16 to 50 | 16 to 50 | 0.01 to 15 | 78 | 79 | 5 | 9.9 | 49.6
2 | Cn1cnc2cc(O)c(-c3ccc(O[C@H]4C[C@]5(C)CCC[C@@](C)(N5)[C@H]4F)nn3)cc2c1=O (single isomer, unassigned) [133-ENT1] | 101 to 500 | 51 to 100 | 0.01 to 15 | 81 | 87 | 10 | 4.98 | 52.4
3 | Cn1cnc2cc(O)c(-c3ccc(O[C@@H]4C[C@@]5(C)CCC[C@](C)(N5)[C@@H]4F)nn3)cc2c1=O (single isomer, unassigned) [133-ENT2] | 51 to 100 | 51 to 100 | 0.01 to 15 | 92 | 90 | 12 | 5.25 | 60.9
4 | CNC(=O)c1ccc2cc(-c3ccc(O[C@@H]4C[C@H]5CCC[C@H](N5)[C@@H]4F)nn3)c(O)cc2n1 (single isomer, unassigned) [136-ENT2] | 0.01 to 15 | 16 to 50 | 0.01 to 15 | 88 | 93 | 25 | 2.1 | 52.1
5 | Cn1cnc(-c2ccc(-c3ccc(O[C@@H]4C[C@@]5(C)CCC[C@](C)(N5)[C@@H]4F)nn3)c(O)c2)cc1=O (single isomer, unassigned) [139-ENT1] | 16 to 50 | 16 to 50 | 0.01 to 15 | 75 | 75 | 14 | 2.36 | 32.1
6 | Oc1cc(-c2nnco2)ccc1-c1ccc(O[C@H]2C[C@@H]3CC[C@@H](N3)[C@H]2F)nn1 (single isomer, unassigned) [140-ENT1] | 101 to 500 | 101 to 500 | 101 to 500 | 92 | 95 | 2 | 18.1 | 43.3
7 | C[C@@]12CCC[C@@](C)(N1)[C@@H](F)[C@@H](Oc1ccc(-c3ccc(-c4cn[nH]c4)cc3O)nn1)C2 (single isomer, unassigned) [147-ENT1] | 0.01 to 15 | 0.01 to 15 | 0.01 to 15 | 78 | 83 | 13 | 4.61 | 58.1
8 | C[C@]12CCC[C@](C)(N1)[C@H](F)[C@H](Oc1ccc(-c3ccc(-c4cn[nH]c4)cc3O)nn1)C2 (single isomer, unassigned) [147-ENT2] | 0.01 to 15 | 0.01 to 15 | 0.01 to 15 | 71 | 80 | 13 | 4.46 | 58.1
9 | Cn1ccc(-c2ccc(-c3ccc(O[C@H]4C[C@]5(C)CCC[C@@](C)(N5)[C@H]4F)nn3)c(O)c2)cc1=O (single isomer, unassigned) [149-ENT1] | 51 to 100 | 16 to 50 | 16 to 50 | 76 | 79 | 22 | 2.23 | 48.6
10 | Cn1ccc(-c2ccc(-c3ccc(O[C@@H]4C[C@@]5(C)CCC[C@](C)(N5)[C@@H]4F)nn3)c(O)c2)cc1=O (single isomer, unassigned) [149-ENT2] | 16 to 50 | 16 to 50 | 16 to 50 | 76 | 73 | 24 | 1.94 | 45.7
11 | Cn1cc(-c2ccc(-c3ccc(O[C@@H]4C[C@@]5(C)CC[C@](C)(N5)[C@@H]4F)nn3)c(O)c2)cn1 (single isomer, unassigned) [150-ENT2] | 16 to 50 | 16 to 50 | 16 to 50 | 78 | 87 | 4 | 9.06 | 38.6
12 | Cn1cc(-c2ccc(-c3ccc(O[C@H]4C[C@]5(C)CCC[C@@](C)(N5)[C@H]4F)nn3)c(O)c2)cn1 (single isomer, unassigned) [154-ENT1] | 16 to 50 | 0.01 to 15 | 16 to 50 | 73 | 87 | 4 | 9.33 | 37.7
13 | Cn1cc(-c2ccc(-c3ccc(O[C@@H]4C[C@@]5(C)CCC[C@](C)(N5)[C@@H]4F)nn3)c(O)c2)cn1 (single isomer, unassigned) [154-ENT2] | 16 to 50 | 0.01 to 15 | 16 to 50 | 81 | 92 | 3 | 6.92 | 22
14 | Cn1ccc2cc(-c3ccc(O[C@@H]4C[C@@]5(C)CCC[C@](C)(N5)[C@@H]4F)nn3)c(O)cc2c1=O (single isomer, unassigned) [156-ENT1] | 16 to 50 | 16 to 50 | 0.01 to 15 | 86 | 90 | 11 | 4.79 | 52.6
15 | Cn1ccc2cc(-c3ccc(O[C@H]4C[C@]5(C)CCC[C@@](C)(N5)[C@H]4F)nn3)c(O)cc2c1=O (single isomer, unassigned) [156-ENT2] | 16 to 50 | 16 to 50 | 0.01 to 15 | 80 | 99 | 9 | 4.9 | 46.3
16 | COc1cc(-c2ccc(-c3ccc(O[C@@H]4C[C@@]5(C)CC[C@](C)(N5)[C@@H]4F)nn3)c(O)c2)cnn1 (single isomer, unassigned) [157-ENT1] | 16 to 50 | 16 to 50 | 16 to 50 | 77 | 84 | 6 | 6.28 | 35.7
17 | COc1cc(-c2ccc(-c3ccc(O[C@H]4C[C@]5(C)CC[C@@](C)(N5)[C@H]4F)nn3)c(O)c2)cnn1 (single isomer, unassigned) [157-ENT2] | 16 to 50 | 16 to 50 | 16 to 50 | 82 | 81 | 5 | 6.79 | 36.1
18 | Oc1cc(-c2cn[nH]c2)ccc1-c1ccc(O[C@@H]2C[C@H]3C[C@H](F)C[C@@H](C2)N3)nn1 [compound 113, 2-(6-(((1R,3r,5S,7s)-7-fluoro-9-azabicyclo[3.3.1]nonan-3-yl)oxy)pyridazin-3-yl)-5-(1H-pyrazol-4-yl)phenol] | 0.01 to 15 | 0.01 to 15 | 0.01 to 15 | 86 | 88 | 54 | 1.01 | 54.2
